This is an account of results in patent US5596018A, “Antiviral agents against aids-causing virus” (priority 1988, dated 1997).

pEC50: −log10 of the molar value.

The subject of data set [1] is HIV-1. Briefly: Anti-HIV-1 assay in MT-4 cells, inhibition of viral cytopathogenicity. The format is cell-based. To be noted: for pEC50: Human immunodeficiency virus 1, MT4, HIV-1, cytopathogenic effect, read-out: ED50 a: Antiviral 50% effective dose; for pEC50 / SI: Selective index: MT-4 cells. On the technique in general: Damage to the host cells serves as the signal in cytopathic effect assays.

In data set [2] the test system is HIV-1. Briefly: Anti-HIV-1 assay in HUT-78 cells, expression of viral antigen. The format is cell-based. To be noted: for SI: Selective index / pEC50: HUT-78 cells; for pEC50: Human immunodeficiency virus 1, HuT78, HIV-1 antigen expression, read-out: ED50 a: Antiviral 50% effective dose.
The nature of a further data set: in vitro. To be noted: human. The protocol: Anti-HIV assays of fuchsinic acid were carried out in cultures of MT-4 and HUT-78 cells infected with AIDS-causing viruses such as HIV type 1 (HIV-1) and HIV type 2 (HIV-2), taking cytopathogenicity as a parameter of the inhibitory effect on replication of the viruses. The anti-HIV activity was also measured by monitoring the expression of viral antigen.

For the next data set, the system named is HIV-2. Nature of the data set: Anti-HIV-2 assay in MT-4 cells, inhibition of viral cytopathogenicity. To be noted: Human immunodeficiency virus 2, MT4; HIV-2, MT-4 cells, cytopathogenic effect; read-out: 50% effective dose (ED50) for HIV-2. The format is cell-based.

As a reminder, the CC50 is the concentration at which the toxic effect on the cells reaches its halfway point.

With `O=C(O)C1=CC(=C(c2ccc(O)c(C(=O)O)c2)c2ccc(O)c(C(=O)O)c2)C=CC1=O` [ATA, Aurintricarboxylic acid], the pEC50 was 5.30 in the data set with HIV-1 [1] and 6.16 with HIV-1 [2]. Besides, the “SI: Selective index” value in the data set with HIV-1 [1] came to 118; in the data set on HIV-1 [2], 19. In addition, the CC50 in “in vitro” (hut-78 cells) was 13 µM; in the data set “in vitro” (mt-4 cells), 590 µM.

On to `O=C1C=CC(=C(c2ccc(O)cc2)c2ccc(O)cc2)C=C1` [Aurin], for which the pEC50 in the data set on HIV-1 [1] was < 5.59; with HIV-1 [2] it was < 5.64. The “SI: Selective index” value with HIV-1 [1] and in the data set on HIV-1 [2] was < 1 throughout. Also, the CC50 in “in vitro” (hut-78 cells) came to 2.3 µM; in the data set “in vitro” (mt-4 cells), 2.6 µM.

As to `Cc1cc(C(=C2C=CC(=N)C(S(=O)(=O)O)=C2)c2ccc(N)c(S(=O)(=O)O)c2)cc(S(=O)(=O)O)c1N` [Fuchsinic acid], in the data set with HIV-1 [1] (HIV-1, MT-4 cells, at 125 μM (FIG. 1-A)), the “Inhibition of cytopathogenic effect (CPE)” value is “complete inhibition”. The pEC50 in the data set with HIV-1 [1] was 4.38; with HIV-1 [2], 4.80; in the data set with HIV-2, 4.20. The “SI: Selective index” value is listed as < 74 in the data set with HIV-1 [1] and < 39 with HIV-1 [2]. The “Inhibition of HIV-1 antigen” value in the data set on HIV-1 [2] (at 25 μM) is given as “inhibited”. Besides, the CC50 in the data set “in vitro” (hut-78 cells) was > 625 µM; in the data set “in vitro” (mt-4 cells), > 3120 µM.

Take `Cc1ccc(C(=O)Nc2ccc(S(=O)(=O)O)c3cc(S(=O)(=O)O)cc(S(=O)(=O)O)c23)cc1NC(=O)c1cccc(NC(=O)Nc2cccc(C(=O)Nc3cc(C(=O)Nc4ccc(S(=O)(=O)O)c5cc(S(=O)(=O)O)cc(S(=O)(=O)O)c45)ccc3C)c2)c1` [Suramin]: the pEC50 is 4.49 with HIV-1 [1] and 4.74 in the data set on HIV-1 [2]. Moreover, the results for the “SI: Selective index” value with HIV-1 [1] and with HIV-1 [2] were 20 and 3.1, respectively. Moreover, the CC50 in “in vitro” (hut-78 cells) is 55 µM; in the data set “in vitro” (mt-4 cells) it was 625 µM.
